The values that follow come from patent US10328054B2, “Substituted pyrrolidines as mGluR5 antagonists” (Hua Medicine (Shanghai) Ltd., priority 2015, dated 2019).

Usually IC50 stands for the midpoint of a concentration-inhibition curve.

Bounds are passed on as bounds.

Sequence of recombinant rat mGluR5 (P31424 21-1203): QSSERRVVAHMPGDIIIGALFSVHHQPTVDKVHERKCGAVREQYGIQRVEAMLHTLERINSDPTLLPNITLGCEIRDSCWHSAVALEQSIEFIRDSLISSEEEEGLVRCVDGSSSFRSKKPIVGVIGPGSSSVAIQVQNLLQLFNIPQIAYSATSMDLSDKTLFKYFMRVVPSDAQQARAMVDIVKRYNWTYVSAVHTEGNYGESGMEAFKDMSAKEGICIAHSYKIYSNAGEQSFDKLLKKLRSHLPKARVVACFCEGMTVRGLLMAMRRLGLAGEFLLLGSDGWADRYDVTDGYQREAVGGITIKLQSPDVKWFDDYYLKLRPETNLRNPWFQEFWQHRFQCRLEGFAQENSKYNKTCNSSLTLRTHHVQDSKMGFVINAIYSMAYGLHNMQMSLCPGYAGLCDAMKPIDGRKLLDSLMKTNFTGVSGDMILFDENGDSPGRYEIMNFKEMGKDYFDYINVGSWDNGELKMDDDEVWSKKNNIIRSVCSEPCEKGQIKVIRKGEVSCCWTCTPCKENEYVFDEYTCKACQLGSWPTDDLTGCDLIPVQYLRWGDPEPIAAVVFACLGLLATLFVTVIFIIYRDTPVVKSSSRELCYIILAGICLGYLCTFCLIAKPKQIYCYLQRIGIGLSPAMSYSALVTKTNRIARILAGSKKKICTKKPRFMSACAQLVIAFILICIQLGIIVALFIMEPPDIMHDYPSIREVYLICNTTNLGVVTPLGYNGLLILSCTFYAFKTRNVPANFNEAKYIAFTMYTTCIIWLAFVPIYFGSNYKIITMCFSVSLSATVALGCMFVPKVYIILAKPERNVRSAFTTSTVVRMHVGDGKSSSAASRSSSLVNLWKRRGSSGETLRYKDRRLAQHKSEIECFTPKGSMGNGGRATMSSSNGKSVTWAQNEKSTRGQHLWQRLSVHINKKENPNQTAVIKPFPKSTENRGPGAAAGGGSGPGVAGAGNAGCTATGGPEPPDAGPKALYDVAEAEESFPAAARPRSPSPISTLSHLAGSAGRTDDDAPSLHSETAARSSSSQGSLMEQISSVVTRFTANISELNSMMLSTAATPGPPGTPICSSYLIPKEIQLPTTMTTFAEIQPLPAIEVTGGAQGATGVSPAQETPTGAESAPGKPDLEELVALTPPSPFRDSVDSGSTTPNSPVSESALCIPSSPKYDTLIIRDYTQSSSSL

The assay addresses recombinant rat mGluR5 (Rattus norvegicus (Rat), UniProt P31424). Description: Functional calcium flux assay (FLIPR). Type of assay: cell-based. The note with it: HEK293 cells stably expressing recombinant rat mGluR5; inhibition of glutamate-evoked [Ca2+]i increase, 15 min incubation of test compound. The method, then:
For functional assays, HEK293 cells stably expressing recombinant rat mGluR5 were seeded in 384-well plates and dye loaded using Fluo-8. Cells were then washed to remove the un-incorporated dye. Antagonist evaluation was performed following a 15 min incubation of the test compound followed by the addition of submaximal concentration of glutamate. Intracellular calcium ([Ca^2+]i) measurements were performed using a fluorometric imaging plate reader (FLIPR, Molecular Devices). The glutamate-evoked increase in [Ca^2+]i in the presence of the test compounds was compared to the response to glutamate alone (the positive control). Antagonist inhibition curves were fitted with a 4-parameter logistic equation giving IC50 values, and Hill coefficients using an iterative nonlinear curve fitting algorithm.
The tables below provide IC50 data in this assay. In the activity column, A=IC50>1,000 and <5,000 nM; B=IC50>500 and <1,000 nM and C=IC50<500 nM.
For orientation: A change in cytosolic calcium serves as a functional read-out for many receptors and channels.
As for `O=C(c1cccc(F)c1)N1CC2CC2(C#Cc2ccccn2)C1` (centres unmarked) [Example Compound 41, (3-fluorophenyl)-(1-(pyridin-2-ylethynyl)-3-azabicyclo[3.1.0]hexan-3-yl)methanone], the IC50 is < 500 nM.

For the compound `O=S(=O)(c1ccccc1F)N1CC2CC2(C#Cc2ccccn2)C1` (centres unmarked) [Example Compound 42, 3-((2-fluorophenyl)sulfonyl)-1-(pyridin-2-ylethynyl)-3-azabicyclo[3.1.0]hexane], the IC50 was < 500 nM. The same measure for `Cc1cccc(C#CC23CC2CN(c2cncc(F)c2)C3)n1` (centres unmarked) [Example Compound 43, 3-(5-fluoropyridin-3-yl)-1-((6-methylpyridin-2-yl)ethynyl)-3-azabicyclo[3.1.0]hexane]: < 500 nM; for `Cc1cccc(C#CC23CC2CN(C(=O)c2cccc(F)c2)C3)n1` (centres unmarked) [Example Compound 44, (3-fluorophenyl)-(1-((6-methylpyridin-2-yl)ethynyl)-3-azabicyclo[3.1.0]hexan-3-yl)methanone]: < 500 nM; for `Fc1cc(F)cc(N2CC3CC3(C#Cc3ncccn3)C2)c1` (centres unmarked) [Example Compound 45, 3-(3,5-difluorophenyl)-1-(pyrimidin-2-ylethynyl)-3-azabicyclo[3.1.0]hexane]: < 500 nM. `Fc1cccc(N2CC3CC3(C#Cc3ncccn3)C2)c1` (centres unmarked) [Example Compound 46, 3-(3-fluorophenyl)-1-(pyrimidin-2-ylethynyl)-3-azabicyclo[3.1.0]hexane]: the IC50 is < 500 nM.

For `Cc1nc(C#CC23CC2CN(c2cccc(C#N)c2)C3)cs1` (centres unmarked) [Example Compound 47, 3-(1-((2-methylthiazol-4-yl)ethynyl)-3-azabicyclo[3.1.0]hexan-3-yl)benzonitrile], the IC50 was < 500 nM. As to `Cc1nc(C#CC23CC2CN(c2cncc(F)c2)C3)cs1` (centres unmarked) [Example Compound 48, 4-((3-(S-fluoropyridin-3-yl)-3-azabicyclo[3.1.0]hexan-1-yl)ethynyl)-2-methylthiazole], the IC50 was < 500 nM.

On to `Cc1nc(C#CC23CC2CN(C(=O)c2cccc(Cl)c2)C3)cs1` (centres unmarked) [Example Compound 49, (3-chlorophenyl)-(1-((2-methylthiazol-4-yl)ethynyl)-3-azabicyclo[3.1.0]hexan-3-yl)methanone], for which the IC50 is < 500 nM. The same measure for `N#Cc1cncc(N2CC3CC3(C#Cc3ccccn3)C2)c1` (stereo not drawn) [Example Compound 50, S-(1-(pyridin-2-ylethynyl)-3-azabicyclo[3.1.0]hexan-3-yl)nicotinonitrile]: < 500 nM.

In the case of `O=C(C1CCCC1)N1C[C@H]2C[C@@]2(C#Cc2ccccn2)C1` [Example Compound 51, cyclopentyl((1R,5S)-1-(pyridin-2-ylethynyl)-3-azabicyclo[3.1.0]hexan-3-yl)methanone], the IC50 was < 500 nM.

Consider `CC(C)(C)C(=O)N1C[C@H]2C[C@@]2(C#Cc2ccccn2)C1` [Example Compound 52, 2,2-dimethyl-1-((1R,5S)-1-(pyridin-2-ylethynyl)-3-azabicyclo[3.1.0]hexan-3-yl)propan-1-one], for which the IC50 is < 500 nM. With `COC(=O)N1CC2CC2(C#Cc2ccccn2)C1` (centres unmarked) [Example Compound 53, methyl 1-(pyridin-2-ylethynyl)-3-azabicyclo[3.1.0]hexane-3-carboxylate] the figure was < 500 nM. With `O=C(c1cncc(Cl)c1)N1C[C@H]2C[C@@]2(C#Cc2ccccn2)C1` [Example Compound 54, (5-chloropyridin-3-yl)((1R,5S)-1-(pyridin-2-ylethynyl)-3-azabicyclo[3.1.0]hexan-3-yl)methanone] the figure was < 500 nM. Consider `O=C(c1cc(Cl)ccn1)N1CC2CC2(C#Cc2ccccn2)C1` (centres unmarked) [Example Compound 55, (4-chloropyridin-2-yl)-(1-(pyridin-2-ylethynyl)-3-azabicyclo[3.1.0]hexan-3-yl)methanone], for which the IC50 is < 500 nM. The same measure for `O=C(c1ccc(Cl)nc1)N1CC2CC2(C#Cc2ccccn2)C1` (centres unmarked) [Example Compound 56, (6-chloropyridin-3-yl)-(1-(pyridin-2-ylethynyl)-3-azabicyclo[3.1.0]hexan-3-yl)methanone]: < 500 nM; for `O=C(Nc1ccccc1)N1CC2CC2(C#Cc2ccccn2)C1` (centres unmarked) [Example Compound 57, N-phenyl-1-(pyridin-2-ylethynyl)-3-azabicyclo[3.1.0]hexane-3-carboxamide]: 500 to 1000 nM.

As for `CCCNC(=O)N1C[C@H]2C[C@@]2(C#Cc2ccccn2)C1` [Example Compound 58, (1R,5S)—N-propyl-1-(pyridin-2-ylethynyl)-3-azabicyclo[3.1.0]hexane-3-carboxamide], the IC50 was < 500 nM. The same measure for `O=C(N1CCCC1)N1CC2CC2(C#Cc2ccccn2)C1` (centres unmarked) [Example Compound 59, (1-(pyridin-2-ylethynyl)-3-azabicyclo[3.1.0]hexan-3-yl)(pyrrolidin-1-yl)methanone]: < 500 nM. With `O=C(NCC(F)(F)F)N1CC2CC2(C#Cc2ccccn2)C1` (centres unmarked) [Example Compound 60, 1-(pyridin-2-yl-ethynyl)-N-(2,2,2-trifluoroethyl)-3-azabicyclo[3.1.0]hexane-3-carboxamide] the figure was < 500 nM. The same measure for `O=C(c1cccc(Cl)c1)N1CC2CC2(C#Cc2ncccn2)C1` (centres unmarked) [Example Compound 61, (3-chlorophenyl)-(1-(pyrimidin-2-ylethynyl)-3-azabicyclo[3.1.0]hexan-3-yl)methanone]: 500 to 1000 nM. As for `N#Cc1cccc(N2CC3CC3(C#Cc3ncccn3)C2)c1` (centres unmarked) [Example Compound 62, 3-(1-(pyrimidin-2-ylethynyl)-3-azabicyclo[3.1.0]hexan-3-yl)benzonitrile], the IC50 was < 500 nM. The same measure for `Fc1cncc(N2CC3CC3(C#Cc3ncccn3)C2)c1` (centres unmarked) [Example Compound 63, 3-(5-fluoropyridin-3-yl)-1-(pyrimidin-2-ylethynyl)-3-azabicyclo[3.1.0]hexane]: < 500 nM.

For `Cc1cccc(C#CC23CC2CN(C(=O)C(C)C)C3)n1` (centres unmarked) [Example Compound 64, 2-methyl-1-(1-((6-methylpyridin-2-yl)ethynyl)-3-azabicyclo[3.1.0]hexan-3-yl)propan-1-one], the IC50 was < 500 nM.

On to `CC(C)C(=O)N1CC2CC2(C#Cc2cccc(Cl)n2)C1` (centres unmarked) [Example Compound 65, 1-(1-((6-chloropyridin-2-yl)ethynyl)-3-azabicyclo[3.1.0]hexan-3-yl)-2-methylpropan-1-one], for which the IC50 was < 500 nM. Consider `Cc1nc(C#CC23CC2CN(C(=O)c2ccccc2)C3)cs1` (centres unmarked) [Example Compound 66, (1-((2-methylthiazol-4-yl)ethynyl)-3-azabicyclo[3.1.0]hexan-3-yl)(phenyl)methanone], for which the IC50 is < 500 nM. The same measure for `CCCCC(=O)N1CC2CC2(C#Cc2csc(C)n2)C1` (centres unmarked) [Example Compound 67, 1-(1-((2-mehylthyiazol-4-yl)ethynyl)-3-azabicyclo[3.1.0]hexan-3-yl)pentan-1-one]: < 500 nM; for `Cc1nc(C#CC23CC2CN(C(=O)C(C)C)C3)cs1` (centres unmarked) [Example Compound 68, 2-methyl-1-(1-((2-methylthiazol-4-yl)ethynyl)-3-azabicyclo[3.1.0]hexan-3-yl)propan-1-one]: < 500 nM. On to `Cc1nc(C#CC23CC2CN(C(=O)C(C)(C)C)C3)cs1` (centres unmarked) [Example Compound 69, 2,2-dimethyl-1-(1-((2-methylthiazol-4-yl)ethynyl)-3-azabicyclo[3.1.0]hexan-3-yl)propan-1-one], for which the IC50 is < 500 nM.
